Assay results: article PMC9862111, “Isolation of the Lanostane Triterpenes Pholiols L–S from Pholiota populnea and Evaluation of Their Antiproliferative and Cytotoxic Activities” (Pharmaceuticals, 2023)

How the values were obtained:
Colo 320 [1] = experiment: Cytotoxic MTT assay, 24 h; conditions: for IC50: Homo sapiens, COLO 320, 24 h, read-out: Cytotoxic activity IC50 Colo 320 (B) Mean; for RR (relative resistance ratio) (B/A): IC50 resistant (Colo 320)/IC50 sensitive (Colo 205), cytotoxic assay
Description: (§2) Cell Line Cultures: The human colon adenocarcinoma cell lines, Colo 205 (ATCC-CCL-222) doxorubicin-sensitive parent and Colo320/MDR-LRP (ATCC-CCL-220.1) doxorubicin resistant expressing ABCB1, were purchased from LGC Promochem (Teddington, UK). The cells were cultured in RPMI-1640 medium supplemented with 10% heat-inactivated fetal bovine serum (FBS), 2 mM L-glutamine, 1 mM Na-pyruvate, 100 mM HEPES. The MRC-5 (ATCC CCL-171) human embryonic lung fibroblast cell line and the hormone-responsive breast cancer cell line MCF-7 (ATCC HTB-22) were purchased from Sigma-Aldrich (Merck KGaA, Darmstadt, Germany). The MCF-7 and MRC-5 cells were cultured in Eagle’s Minimal Essential Medium (EMEM) containing 4.5 g/L of glucose and supplemented with a non-essential amino acid mixture, a selection of vitamins, and 10% FBS. The cell lines were incubated at 37 °C, 5% CO2, and 95% air atmosphere. The cells were detached with Trypsin-Versene (EDTA) solution for 5 min at 37 °C. The human non-small cell lung cancer cell line A549 was kindly provided by Brigitte Marian (Institute of Cancer Research, Department of Medicine I, Medical University of Vienna, Austria). A549 cells were grown in Eagle’s Minimal Essential Medium (EMEM) supplemented with 10% heat-inactivated fetal bovine serum.
(§3) Assay for Cytotoxic Effect: The effects of increasing concentrations of the compounds on cell growth were tested in 96-well flat-bottomed microtiter plates, as described for the antiproliferative assay, using 1 × 10^4 cells/well. The culture plates were incubated at 37 °C for 24 h; at the end of the incubation period, 20 μL of MTT solution (from a 5 mg/mL stock solution) was added to each well. After incubation at 37 °C for 4 h, 100 μL of sodium dodecyl sulfate (SDS) solution (10% SDS in 0.01 M HCl) was added to each well, and the plates were further incubated at 37 °C overnight. Cell growth was determined by measuring the optical density (OD) at 540 nm (ref 630 nm) with a Multiscan EX ELISA reader (Thermo Labsystems, Cheshire, WA, USA).
(§4) Sample preparation: The compounds were dissolved in DMSO to achieve the final concentration of 5 mM. The starting concentration of the compounds was 100 µM and 2-fold serial dilutions were prepared for the antiproliferative and cytotoxic assays. The following concentrations were used: 100-50-25-12.5-6.25-3.125-1.56-0.78-0.39-0.195 µM.

MCF-7 [2] = experiment: Antiproliferative MTT assay, 72 h; assay type: cell-based, human; conditions: for IC50: Homo sapiens, MCF7, MTT, 72 h, 6 × 10^3 cells/well, breast cancer; for Selectivity index (SI), MCF-7: antiproliferative assay, MCF-7 versus non-cancerous MRC-5
Description: (§1) Antiproliferative Assays: The antiproliferative effect of the compounds was tested in decreasing serial dilutions of compounds (starting with 100 µM, then two-fold serial dilution) on human cell lines (Colo 205, Colo 320, MCF-7, A549, and MRC-5) in 96-well flat-bottomed microtiter plates. Firstly, the compounds were diluted in 100 µL of the medium, and then, 6 × 10^3 cells (Colo 205, Colo 320) in 100 µL of RPMI medium were added to each well, excluding the medium control wells. The adherent MCF-7, A549, and MRC-5 cells (6 × 10^3 cells/well) were seeded in EMEM medium for at least 4 h before the assay. The two-fold serial dilutions of the compounds were made in a separate plate (100–0.19 μM) and then transferred to the plates containing the adherent-corresponding cell line. […] The percentage of inhibition of cell growth was determined according to Equation (1), and expressed as IC50 values, defined as the concentration that induces 50% growth inhibition. IC50 values and the standard deviation (SD) of triplicate experiments were calculated using GraphPad Prism 5 software for Windows. Doxorubicin (2 mg/mL, Teva Pharmaceuticals, Budapest, Hungary) was used as a positive control and the vehicle DMSO as the negative control (Table 3). (1) […][ODsample−ODmedium control/ODcell control−ODmedium control]×100

Colo 205 [3] = experiment: Antiproliferative MTT assay, 72 h; assay type: cell-based, human; conditions: for IC50: MTT, 72 h, 6 × 10^3 cells/well, sensitive colon adenocarcinoma; for Selectivity index (SI), Colo 205: antiproliferative assay, Colo 205 versus non-cancerous MRC-5
Description: as §1

A549 [4] = experiment: Cytotoxic MTT assay, 24 h; conditions: Homo sapiens, A549, 24 h, read-out: Cytotoxic activity IC50 A549 Mean
Description: as §2, §3, §4

MCF-7 [5] = experiment: Cytotoxic MTT assay, 24 h; conditions: Homo sapiens, MCF7, 24 h, read-out: Cytotoxic activity IC50 MCF-7 Mean
Description: as §2, §3, §4

treated cancer cells = experiment: Antiproliferative MTT assay, summary over cancer cell lines; assay type: cell-based, human; conditions: versus MRC-5
Description: as §1

Colo 205 [6] = experiment: Cytotoxic MTT assay, 24 h; conditions: Homo sapiens, COLO 205, 24 h, read-out: Cytotoxic activity IC50 Colo 205 (A) Mean
Description: as §2, §3, §4

A549 [7] = experiment: Antiproliferative MTT assay, 72 h; assay type: cell-based; conditions: Homo sapiens, 6 × 10^3 cells/well, non-small cell lung cancer
Description: as §1

Colo 320 [8] = experiment: Antiproliferative MTT assay, 72 h; assay type: cell-based; conditions: Homo sapiens, 6 × 10^3 cells/well, resistant colon adenocarcinoma
Description: as §1

MRC-5 = experiment: Antiproliferative MTT assay, 72 h; assay type: cell-based; conditions: Homo sapiens, MRC5, 6 × 10^3 cells/well, normal embryonic lung fibroblast
Description: as §1

in vitro = conditions: human
Description: as §2, §3, §4

MCF-7 [9] = system: MCF-7
Description: as §2, §3, §4

[10] = Cytotoxic MTT assay, 24 h; conditions: human, MRC-5 embryonic lung fibroblast cells
Description: as §2, §3, §4

[11] = system: resistant colon adenocarcinoma cells (Colo 320); design: method as in PMID 35293752; conditions: read-out: Cytotoxic activity IC50 Colo 320; cited from earlier work
[12] = system: sensitive (Colo 205) colon adenocarcinoma cells; design: method as in PMID 35293752; conditions: read-out: Cytotoxic activity IC50 Colo 205; cited from earlier work
Colo 320 cells = system: Colo 320 cells; design: method as in PMID 35293752; conditions: checkerboard method; cited from earlier work
[13] = system: p-glycoprotein (ABCB1) efflux pump; design: method as in PMID 35293752; conditions: resistant Colo 320 cells; cited from earlier work
COX-2 = system: COX-2; design: method as in PMID 36279964; conditions: read-out: IC50 against COX-2; cited from earlier work
5-LOX = system: 5-LOX; design: method as in PMID 36279964; conditions: read-out: IC50 against 5-LOX; cited from earlier work

For `COC(=O)CC(C)(O)CC(=O)OC1C(O)CC2(C)C3=C(C(=O)CC2C1(C)C)C1(C)CCC(C(C)CCC(=O)C(C)(C)O)C1(C)CC3` (stereo not drawn) [Compound 1, pholiol L], the IC50 (Colo 320 [1]) was 33.9 µM, the “RR (relative resistance ratio) (B/A)” value (Colo 320 [1]) was 0.84 and the IC50 (MCF-7 [2]) was 21.7 µM. The IC50 (Colo 205 [3]; Homo sapiens, COLO 205, 72 h) was 32.4 µM, the IC50 (A549 [4]) was 93.6 µM and the IC50 (MCF-7 [5]) was 43.7 µM. The “Selectivity to cancerous cell lines over normal cells” value (from here on “Selectivity to cancerous cell lines”) (treated cancer cells) was “did not display selectivity”, the IC50 (Colo 205 [6]) was 40.3 µM and the IC50 (A549 [7]) was 53.7 µM. For the same compound, the IC50 (Colo 320 [8]) was 28.1 µM, the IC50 (MRC-5) was 70.9 µM and the IC50 at 24 h (in vitro) was 66.1 µM.

With `COC(=O)CC(C)(O)CC(=O)OC1CC2(C)C3=C(C(=O)CC2C(C)(C)C1OC(C)=O)C1(C)CCC(C(C)CCC(=O)C(C)(C)O)C1(C)CC3O` (stereo not drawn) [Compound 2, pholiol M] the IC50 (Colo 320 [1]) was 67.2 µM, the “RR (relative resistance ratio) (B/A)” value (Colo 320 [1]) was 1.87 and the IC50 (MCF-7 [2]) was 2.48 µM. For the same compound, the “Selectivity index (SI), MCF-7” value (MCF-7 [2]) was greater than 40, the IC50 (Colo 205 [3]; Homo sapiens, COLO 205, 72 h) was 23.9 µM and the “Selectivity index (SI), Colo 205” value (Colo 205 [3]) was greater than 4.18. The IC50 (A549 [4]) was 58.1 µM, the IC50 (MCF-7 [5]) was greater than 100 µM and the “Cytotoxic activity IC50 MCF-7 Mean” value (MCF-7 [9]) was “did not show a cytotoxic effect”. The IC50 (Colo 205 [6]) was 35.9 µM, the IC50 (A549 [7]) was greater than 100 µM and the IC50 (Colo 320 [8]) was 32.5 µM. It also gave an IC50 (MRC-5) greater than 100 µM and an IC50 at 24 h (in vitro) greater than 100 µM.

For `COC(=O)C[C@@](C)(O)CC(=O)O[C@@H]1C[C@]2(C)C3=C(C(=O)C[C@H]2C(C)(C)[C@H]1OC(C)=O)[C@]1(C)CC[C@H]([C@H](C)CCC(=O)C(C)(C)O)[C@@]1(C)CC3=O` [Compound 4, pholiol O], the IC50 (Colo 320 [1]) was 91.5 µM, the “RR (relative resistance ratio) (B/A)” value (Colo 320 [1]) was 2.90 and the IC50 (MCF-7 [2]) was 9.95 µM. The “Selectivity index (SI), MCF-7” value (MCF-7 [2]) was 4.3, the IC50 (Colo 205 [3]; Homo sapiens, COLO 205, 72 h) was 23.3 µM and the IC50 (Colo 205 [3]) was 23.4 µM. The “Selectivity index (SI), Colo 205” value (Colo 205 [3]) was 1.8, the IC50 (A549 [4]) was 56.9 µM and the IC50 (MCF-7 [5]) was greater than 100 µM. The “Cytotoxic activity IC50 MCF-7 Mean” value (MCF-7 [9]) was “did not show a cytotoxic effect”, the IC50 (Colo 205 [6]) was 31.5 µM and the IC50 (A549 [7]) was 51.5 µM. For the same compound, the IC50 (Colo 320 [8]) was 42.1 µM, the IC50 (MRC-5) was 42.9 µM and the IC50 at 24 h (in vitro) was 58 µM.

For `CC(=O)O[C@H]1[C@H](OC(=O)C[C@](C)(O)CC(=O)O)C[C@]2(C)C3=CC[C@]4(C)[C@@H]([C@H](C)CCC(=O)C(C)(C)O)CC[C@@]4(C)C3=CC[C@H]2C1(C)C` [Compound 6, pholiol Q], the IC50 (Colo 320 [1]) was 34.7 µM, the “RR (relative resistance ratio) (B/A)” value (Colo 320 [1]) was 0.62 and the IC50 (MCF-7 [2]) was 46.3 µM. The IC50 (Colo 205 [3]; Homo sapiens, COLO 205, 72 h) was 50 µM, the IC50 (A549 [4]) was 85.9 µM and the IC50 (MCF-7 [5]) was 43.8 µM. For the same compound, the “Selectivity to cancerous cell lines” value (treated cancer cells) was “did not display selectivity”, the IC50 (Colo 205 [6]) was 56.1 µM and the IC50 (A549 [7]) was 51.2 µM. It also gave an IC50 (Colo 320 [8]) of 69.2 µM, an IC50 (MRC-5) greater than 100 µM and an IC50 at 24 h (in vitro) greater than 100 µM.

For `COC(=O)C[C@@](C)(O)CC(=O)O[C@@H]1C[C@]2(C)C3=C(C(=O)C[C@H]2C(C)(C)[C@H]1OC(C)=O)[C@]1(C)CC[C@H]([C@H](C)CCC(=O)O)[C@@]1(C)CC3` [Compound 8, pholiol S], the IC50 (Colo 320 [1]) was 57.5 µM, the “RR (relative resistance ratio) (B/A)” value (Colo 320 [1]) was 1.0 and the IC50 (MCF-7 [2]) was 35.3 µM. For the same compound, the IC50 (Colo 205 [3]; Homo sapiens, COLO 205, 72 h) was 59.9 µM, the IC50 (A549 [4]) was 83.7 µM and the IC50 (MCF-7 [5]) was 43 µM. For the same compound, the “Selectivity to cancerous cell lines” value (treated cancer cells) was “did not display selectivity”, the IC50 (Colo 205 [6]) was 57.5 µM and the IC50 (A549 [7]) was 89.8 µM. For the same compound, the IC50 (Colo 320 [8]) was 68.5 µM, the IC50 (MRC-5) was greater than 100 µM and the IC50 at 24 h (in vitro) was 55.3 µM.

For `COc1cccc2c1C(=O)c1c(O)c3c(c(O)c1C2=O)C[C@@](O)(C(=O)CO)C[C@@H]3O[C@H]1C[C@H](N)[C@H](O)[C@H](C)O1` [Dox, doxorubicin, reference compound], the IC50 (Colo 320 [1]) was 12 µM, the “RR (relative resistance ratio) (B/A)” value (Colo 320 [1]) was 3.60 and the IC50 (MCF-7 [2]) was 0.155 µM. The IC50 (Colo 205 [3]; Homo sapiens, COLO 205, 72 h) was 0.0617 µM, the IC50 (A549 [4]) was 10.2 µM and the IC50 (MCF-7 [5]) was 5.73 µM. The IC50 (Colo 205 [6]) was 3.32 µM, the IC50 (A549 [7]) was 1.04 µM and the IC50 (Colo 320 [8]) was 0.25 µM. For the same compound, the IC50 (MRC-5) was 0.52 µM and the IC50 at 24 h [10] was 3.6 µM.

In the case of `CC(C)[C@@H](C)/C=C/[C@@H](C)[C@H]1CC[C@H]2C3=CC=C4C[C@@H](O)CC[C@]4(C)[C@H]3CC[C@]12C` [Ergosterol], the IC50 [11] is listed as 6.5 µM and the IC50 [12] is listed as 4.9 µM.

For `COC(=O)C[C@@](C)(O)CC(=O)O[C@@H]1C[C@]2(C)C3=C(C(=O)C[C@H]2C(C)(C)[C@H]1OC(C)=O)[C@]1(C)CC[C@H]([C@H](C)CCC(=O)C(C)(C)O)[C@@]1(C)CC3` [pholiol B], the “Drug interaction with doxorubicin” value (Colo 320 cells) is given as “interacted in a synergistic manner” and the “p-glycoprotein (ABCB1) efflux pump inhibitory activity” value [13] is given as “inhibitory activity was found”.

In the case of `COC(=O)C[C@@](C)(O)CC(=O)O[C@@H]1C[C@]2(C)C3=C(CC[C@H]2C(C)(C)[C@H]1OC(C)=O)[C@]1(C)CC[C@H]([C@H](C)CCC(=O)C(C)(C)O)[C@@]1(C)[C@H](O)C3` [pholiol D], the “Drug interaction with doxorubicin” value (Colo 320 cells) is given as “interacted in a synergistic manner”.

In the case of Pholiol F, the IC50 (COX-2) is given as 440 µM and the IC50 (5-LOX) is given as 194 µM.

For pholiol A, the “p-glycoprotein (ABCB1) efflux pump inhibitory activity” value [13] is listed as “inhibitory activity was found”.
